The results in this text go back to patent US20240299405A1, “APPLICATION OF ATP POTASSIUM CHANNEL MODIFIER IN PREPARATION OF ANTI-DIABETIC NEPHROPATHY DRUG” (HANGZHOU QIAN BIOTECHNOLOGY LTD, priority 2020, published 2024).

Structures are written as SMILES.

The test system of data set [1] is STZ diabetic rat models (diabetic nephropathy). Put plainly: Urine microalbumin (mALB) by ELISA in STZ plus high-fat diet diabetic nephropathy rat model. Format: in vivo, SD rats. Conditions: for mALB, urine microalbumin value of each KATP agonist: week 30, mean ± SE; for effect on reducing the amount of microalbumin in diabetic nephropathy urine compared with the negative control group: week 30, p<0.05; for mALB, 20 Week: week 20, mean ± SE; for mALB, 24 Week: week 24, mean ± SE; for mALB, 26 Week: week 26, mean ± SE; for mALB, 32 Week: week 32, mean ± SE; for mALB, 35 Week: week 35, mean ± SE. An excerpt:
STZ substantially and excessively damages islet-β cells through chemical toxicity (Saini K, Thompson C, Winterford C M, Walker N I, Cameron D P. Streptozotocin at low doses induces apoptosis and at high doses causes necrosis in a murine pancreatic b cell line, INS1[J]. International Union of Biochemistry and Molecular Biology Life. 1996, 39(6): 1229-1236). The pathophysiological characteristics of STZ modeled rats are relatively close to that of humans. Their blood can be collected repeatedly to monitor index changes and enough kidney tissues can be obtained for subsequent tissue section analysis. Therefore, STZ diabetic rat models are used. In addition, due to the high toxicity of STZ, multiple injections at low doses can establish better models. Keep feeding a high-fat diet daily after modeling until the end of the experiment. A high-fat diet can cause diabetic nephropathy in STZ rats.
Urine microalbumin (mALB) is an early diagnostic index of kidney injury, and mALB was used as an indicator to test whether rats entered diabetic nephropathy, and rat weight and blood glucose levels were used to observe whether the model was successful.
mALB is one of the most important monitoring indicators of nephropathy. […] Since the measurement results of mALB in humans and mice are different. The difference between the dosing group (group C) and the negative control group (group B) is used to judge whether the test results of this experiment are valid. The normal mALB value in this experiment was only used as a reference value, which is using the data of group A (blank control group).
At the beginning of the experiment, urine and blood of all rats were collected for the detection of the required indicators, and the initial indicators were used as a timely reference for the disease progression of the rats. After the start of the experiment, all rats were sampled with the Elisa kit every other month to detect mALB and other data.
Rat urine collection: urine is collected by metabolic cage, urine is collected after 24 h, the total amount of urine is recorded, and the urine output at 24 h is calculated. Take 1 ml of urine, centrifuge and take the supernatant and store at −80° C. for testing.
A 24 h urine sample was collected from rats for testing, and the collected sample was centrifuged at 15 min, centrifuged at 4° C. at 1000 ref for 20 min, and the mALB value was detected by supernatant or stored at −20° C.
Before starting the experiment, you need to do the following: • (1) Place all reagents (including specimens) in the room and equilibrate to room temperature (18-25° C.) before use. • (2) The standard is diluted to the corresponding gradient. Take a bottle of standard, add 1 mL of standard diluent (at this time the concentration is 1000 μg/mL), mix gently, let stand at room temperature for 10 minutes, and gently shake every 2 minutes to mix. After mixing, dilute it to 100 μg/mL, take 4 EP tubes (add 600 μL of standard dilute to each EP tube), triple dilute the standard from a concentration of 100 μg/mL to 33.33 μg/mL, 11.11 μg/mL, 3.70 μg/mL, 1.23 μg/mL, and use the standard dilution as a blank well (0 μg/mL). • (3) Working solution of the detection solution A: add 150 μL of reagent dilution to the mother liquor of the detection solution A, stand at room temperature for 10 minutes, and shake gently every 2 minutes to have a well-mix. Before use, dilute with the detection diluent A at 1:100, and mix the solution well with the shaker. Calculate the required amount at 50 μL/well for dilution before use (0.1-0.2 mL more needs to be prepared). • (4) Working solution of the detection solution B: Detection solution B needs to be centrifuged at 5000 ref for 10 s before each use to deposition the liquid from the tube wall or cap to the bottom of the tube. Immediately before use, dilute with the detection diluent B at 1:100, and mix them well with the shaker. […]

The subject of data set [2] is STZ diabetic rats. Description: Glomerular filtration rate in STZ diabetic rats. It counts as in vivo, SD rats. Conditions: groups C and D (0.5 and 5 mg/kg) versus group B. The procedure:
(§1) Due to the large body surface area of rats, the doses of groups C, D and E were equivalent to 0.095 mg/kg, 0.95 mg/kg, and 9.5 mg/kg in humans (according to the literature: Anroop B Nair, Shery Jacob. A simple practice guide for dose conversion between animals and human. Journal of Basic and Clinical Pharmacy. 2016, 7(2):27-31.), with 95% binding capacity to albumin, similar to humans. All groups of rats were fed high-fat feed.

The subject of data set [3] is STZ diabetic rats. Conditions: rat, in vivo, 50 mg/kg/day. The procedure:
as §1
In addition, rats in the high-dose E group all died before diabetic nephropathy was modeled, of which 13 died in the first four months and the other 5 died in the fifth and sixth months. It was speculated that the death may be related to the high blood glucose elevation of diabetic rats. Therefore, the statistics of Table 1, FIG. 1, FIG. 2, FIG. 3 and FIG. 5 are not included those rats in group E.

The test system of a further data set is rat kidney. Put plainly: HE staining of rat kidney sections (glomeruli, tubules). It counts as in vivo, SD rats. Conditions: 5 mg/kg (medium-dose) group, six-month rat, renal HE×400. An excerpt: In addition, clinically patients with nephropathy will have an increase in glomerular volume and a higher number of cells in the early stage, and with the progression of the disease, there will be widening of the mesangial area, the mesangial cells and mesangial stroma will increase, and the tubular epithelial cells will have cell edema, that is, often called granular degeneration or vacuolar degeneration, tubulointerstitial fibrosis and other symptoms. In this experiment, the glomerular volume changes of rat kidney sections were observed by HE staining, and the results of renal staining sections in each experimental group are shown in FIG. 5.

[4] abbreviates: group C, 0.5 mg/kg per day gavage.
Setting [5] is: group D, 5 mg/kg per day gavage.

`C/N=C(/S)[C@]1(c2cccnc2)CCCC[S@@+]1[O-]` [Aprikalim]: the “mALB, urine microalbumin value of each KATP agonist” value (“mALB, urine microalbumin value” for short) in data set [1] (1 mg/kg group) was determined as 59.7 ± 25.4 µg/mL. Also, the “effect on reducing the amount of microalbumin in diabetic nephropathy urine compared with the negative control group” value (“effect on reducing the amount” for short) in data set [1] was “significant effect”.

With `CC1(C)Oc2ccc(C#N)cc2C(N2CCCC2=O)C1O` (centres unmarked) [Cromakalim], the “mALB, urine microalbumin value” value in data set [1] (1 mg/kg group) was 77.6 ± 45.6 µg/mL. The “effect on reducing the amount” value in data set [1] was “significant effect”.

For the molecule `CC1=Nc2ccc(Cl)cc2S(=O)(=O)N1` [Diazoxide, 7-chloro-3-methyl-2-hydro-1,2,4-benzothiadiazine 1,1-dioxide], the “effect on the increase of compensatory glomerular filtration rate” value in the data set on STZ diabetic rats [2] is on record as “could reduce the increase of glomerular filtration rate”. In addition, the death of rats result in the data set with STZ diabetic rats [3] is reported as “all died”. Further, the results for the “kidney histology, HE staining” value with rat kidney and in the data set with rat kidney (listed as diazoxide) were “some glomeruli significantly increased in size” and “tubular vacuolar degeneration”, respectively. Moreover, in data set [1] (0.5 mg/kg), the “progression of diabetic nephropathy” value is on record as “can delay the progression of diabetic nephropathy”. Further, the “mALB, 20 Week” value in data set [1] (setting [4]) was determined as 15.6 ± 2.9 µg/mL; in data set [1] (setting [5]), 14.5 ± 3.0 µg/mL. Also, the “mALB, 24 Week” value in data set [1] (group C, 0.5 mg/kg per day gavage, 0.5 mg/kg/day) turned out to be 18.2 ± 4.7 µg/mL; in data set [1] (group D, 5 mg/kg per day gavage, 5 mg/kg/day) it was 19.8 ± 4.3 µg/mL. For the same molecule, the results for the “mALB, 26 Week” value in data set [1] (setting [4]) and in data set [1] (setting [5]) were 28.4 ± 10.8 µg/mL and 19.9 ± 7.4 µg/mL, respectively. Further, the “mALB, 32 Week” value in data set [1] (setting [4]) came out at 149.5 ± 50.3 µg/mL; in data set [1] (setting [5]), 105.5 ± 38.9 µg/mL. For the same molecule, the “mALB, 35 Week” value came to 108.0 ± 33.7 µg/mL in data set [1] (setting [4]) and 52.8 ± 23.4 µg/mL in data set [1] (setting [5]).

Consider `O=C(NCCO[N+](=O)[O-])c1cccnc1` [Nicorandil], for which the “mALB, urine microalbumin value” value in data set [1] (0.5 mg/kg group) came out at 78.2 ± 35.1 µg/mL. In addition, the “effect on reducing the amount” value in data set [1] was “significant effect”.

For `CC(N/C(=N\C#N)Nc1ccncc1)C(C)(C)C` (centres unmarked) [Pinacidil], in data set [1] (1 mg/kg group), the “mALB, urine microalbumin value” value turned out to be 99.7 ± 50.7 µg/mL. The “effect on reducing the amount” value in data set [1] is “significant effect”.

As for `Nc1cc(N2CCCCC2)nc(N)[n+]1[O-]` [minoxidil], in data set [1] (0.5 mg/kg group), the “mALB, urine microalbumin value” value stood at 130.4 ± 60.3 µg/mL.

For the molecule `COC(=O)C1=C(C)NC(C)=C(C(=O)OCCN(C)Cc2ccccc2)C1c1cccc([N+](=O)[O-])c1` (centres unmarked) [nicardipine], the “mALB, urine microalbumin value” value in data set [1] (5 mg/kg group) turned out to be 55.4 ± 25.6 µg/mL.

Consider `CCC1NC(=O)c2cc(S(N)(=O)=O)c(Cl)cc2N1` (centres unmarked) [quinethazone], for which the “mALB, urine microalbumin value” value in data set [1] (1 mg/kg group) was found to be 114.6 ± 45.3 µg/mL.
